Where two headings read alike, the source gives them in different places.
Columns and labels:
[1] = tested on: A549 NSCLC cells; assay: Cell cycle FACS analysis; assay type: cell-based; details: A549, wild-type Rb and p53; 20 or 200 nM, 24 h
Description: Cell cycle phase distribution in control (C) cells or cells treated at 20 or 200 nM Compound 1 for 24 hours (24 h) determined by fluorescence activated cell sorting (FACS) analysis, and detection of histone H2A variant H2A.X phosphorylation (γH2A.X, also referred to herein as gamma H2A.X or γH2A.X) by Western blot as DNA damage biomarker.
In FIG. 3A, protein amounts were normalized using total protein load with ImageLab 6.0 Software (BioRad).

[2] = 5-day daily oral repeated-dose pilot study in Beagle dogs (mesylate salt); assay type: in vivo; details: for Tmax / Cmax / half-life: both sexes, Beagle, dog, plasma, po
Description: The objective of the study was to determine the TK profile of Compound 1, following its daily administration through oral gavage for 5 consecutive days to Beagle dogs. Compound 1 (mesylate salt) was administered daily to groups of dogs (n=2/sex/group) by oral gavage (PO) for 5 consecutive days at doses of 1.5 and 2 mg/kg/day. The vehicle was 0.5% (w/v) methylcellulose in sterile water. For TK evaluation blood samples were collected from each dog on Days 1 and 5 at the following timepoints relative to dosing: pre-dose, 15 min, 30 min, as well as 1, 2, 4, 6, 8, 12, and 24 hours post-dose.

[3] = tested on: SNU-16; assay: SNU-16 gastric cancer CDX mouse model; assay type: in vivo
Text: Left panel: Tumor growth curves. Right panel: Body weight development. […] QW: once weekly treatment. p.o.: per oral. QD: once daily treatment. BID: twice daily treatment. QW: once weekly treatment.
Values larger than 100% indicate tumor regression.

[4] = 28-day once weekly oral repeated-dose DRF study in cynomolgus monkeys (mesylate salt); assay type: in vivo; details: for Cmax / Tmax / half-life / AUC(0-t): cynomolgus monkey, po; for AUC(0-t): read-out: AUC0-Tlast
Description: The objective of the study was to determine the TK profile of Compound 1 following 4 weekly oral administrations to cynomolgus monkeys and to assess reversibility of any changes following a 13-day recovery period.
Male and female cynomolgus monkeys (n=1/sex/group) were orally administered Compound 1 (mesylate salt) at dose levels of 30, 45, 60, or 90 mg/kg/administration for 4 consecutive doses on study days 1, 8, 15, and 22. The vehicle was 0.5% (w/v) methyl cellulose 400 in sterile water. For TK analysis blood samples were collected from each monkey on Days 1, 8, 15 and 22 at pre-dose, 15 min, 30 min, as well as 1, 2, 4, 6, 8, 12, and 24 hours post-dose. Non-compartmental analysis of Compound 1 blood concentrations data sets was performed using the Phoenix® WinNonlin® software (version 6.4).

[5] = tested on: DU-145; assay: Caspase 3/7 activation (apoptosis); assay type: cell-based; design: key: “+” (present); “−” (absent); details: Rb x, p53 x
Text: (§1) It was noted that cancer cell lines that were growth inhibited at lower concentrations of Compound 1 more frequently responded to Compound 1 exposure with an apoptotic reaction (FIG. 2). Since PC cell lines were among the cancer cell types displaying a particularly high sensitivity to Compound 1 treatment (FIG. 1), the potentially underlying biological reasons for an apoptotic response were investigated in a set of PC cell lines consisting of DU-145, LNCaP, 22Rv1 and PC3 cells.
(§2) In table 1, “wt”=wild-type; “x”=cells harboring Rb and p53 deficiencies; “+” (present) or “−” (absent) indicate the arrest (i.e. accumulation) of cells in S-phase triggered by Compound 1, which coincided with accumulation of the DNA damage marker phosphorylated gamma H2AX (γH2AX; see FIG. 3A). These events are followed by activation of caspases 3 and 7 as indicators of cell apoptosis as indicated by “+” (present) or “−” (absent). In cancer cells with intact Rb and/or p53 functions (wt=wild-type), Compound 1 induced growth arrest but not a substantial increase of cells in S-phase (=S-phase arrest). Upon release of treatment, such cells are able to proliferate again.

[6] = tested on: Hut-78; assay: Caspase 3/7 activation (apoptosis); assay type: cell-based; design: key: “+” (present); “−” (absent); details: Rb x, p53 x
Text: as §1, §2

[7] = tested on: BT-549; assay: Caspase 3/7 activation (apoptosis); assay type: cell-based; design: key: “+” (present); “−” (absent); details: Rb x, p53 x
Text: as §1, §2

[8] = female, blood, 45 mg/kg, F, Day 1
[9] = female, blood, 45 mg/kg, F, Day 22
[10] = female, blood, 60 mg/kg, F, Day 1
[11] = female, blood, 60 mg/kg, F, Day 22
[12] = female, blood, 90 mg/kg, F, Day 1
[13] = female, whole blood, 30 mg/kg, F, Day 1
[14] = female, whole blood, 30 mg/kg, F, Day 22
[15] = male, blood, 60 mg/kg, M, Day 1
[16] = male, blood, 60 mg/kg, M, Day 22
[17] = male, blood, 90 mg/kg, M, Day 1
[18] = male, whole blood, 30 mg/kg, M, Day 1
[19] = male, whole blood, 30 mg/kg, M, Day 22
[20] = male, whole blood, 45 mg/kg, M, Day 1
[21] = male, whole blood, 45 mg/kg, M, Day 22

CC(C)C[C@@H]1NCCN([C@@H](CC(C)C)C(=O)N2CCC3(C[C@@H]2C)OCC(CN2CCCC2)CO3)C1=O (stereo partly drawn) [Compound 1, (S)-3-isobutyl-1-((S)-4-methyl-1-((S)-8-methyl-3-(pyrrolidin-1-ylmethyl)-1,5-dioxa-9-azaspiro[5.5]undecan-9-yl)-1-oxopentan-2-yl)piperazin-2-one]
cell cycle response [1]: arrested in G1-phase
Total AUC (AUC(0-inf)) ([2]; 1.5 mg/kg, Day 1): 116 ng·h/mL
Total AUC (AUC(0-inf)) ([2]; 1.5 mg/kg, Day 5): 213 ng·h/mL
Total AUC ([2]; 2 mg/kg, Day 1): 173 ng·h/mL
Total AUC ([2]; 2 mg/kg, Day 5): 270 ng·h/mL
Tmax ([2]; 1.5 mg/kg): ~0.5 h
Cmax ([2]; 1.5 mg/kg, Day 1): 25.4 ng/mL
half-life ([2]; 1.5 mg/kg, Day 1, read-out: elimination half-life (converted)): 4.5 h
Cmax ([2]; 1.5 mg/kg, Day 5): 44.6 ng/mL
half-life ([2]; 1.5 mg/kg, Day 5, read-out: elimination half-life (converted)): 6.2 h
Cmax ([2]; 2 mg/kg, Day 1): 33.6 ng/mL
Tmax ([2]; 2 mg/kg, Day 1): ~0.4 h
half-life ([2]; 2 mg/kg, Day 1, read-out: T1/2 (converted)): 4.7 h
Cmax ([2]; 2 mg/kg, Day 5): 32.3 ng/mL
Tmax ([2]; 2 mg/kg, Day 5): ~2.1 h
half-life ([2]; 2 mg/kg, Day 5, read-out: T1/2 (converted)): 8.6 h
tolerability ([2]; daily oral for 5 consecutive days at 1.5 mg/kg/day): well-tolerated
Tumor growth inhibition ([3]; once weekly 60 mg/kg/day as 30 mg/kg BID, 6 weeks, p <0.001): 103% (<0.001)/**6 weeks
anti-tumor efficacy, weekly vs daily ([3]; weekly 30 mg/kg BID compared to 3 mg/kg daily): comparable anti-tumor efficacy
Cmax [4, 8]: 1460 ng/mL
Tmax [4, 8]: 1.5 h
half-life [4, 8]: 6.3 h
AUC(0-t) [4, 8]: 4130 ng·h/mL
Cmax [4, 9]: 1650 ng/mL
Tmax [4, 9]: 1.5 h
half-life [4, 9]: 5.8 h
AUC(0-t) [4, 9]: 4810 ng·h/mL
Cmax [4, 10]: 1830 ng/mL
Tmax [4, 10]: 1 h
half-life [4, 10]: 3.8 h
AUC(0-t) [4, 10]: 7440 ng·h/mL
Cmax [4, 11]: 4480 ng/mL
Tmax [4, 11]: 2 h
half-life [4, 11]: 4.4 h
AUC(0-t) [4, 11]: 17400 ng·h/mL
Cmax [4, 12]: 5030 ng/mL
Tmax [4, 12]: 1.5 h
half-life [4, 12]: 4.3 h
Cmax [4, 13]: 296 ng/mL
Tmax [4, 13]: 0.63 h
half-life [4, 13]: 6.4 h
AUC(0-t) [4, 13]: 894 ng·h/mL
Cmax [4, 14]: 223 ng/mL
Tmax [4, 14]: 1.25 h
half-life [4, 14]: 5.5 h
AUC(0-t) [4, 14]: 874 ng·h/mL
AUC(0-t) ([4]; female, whole blood, 90 mg/kg, F, Day 1): 18700 ng·h/mL
Cmax [4, 15]: 449 ng/mL
Tmax [4, 15]: 0.5 h
half-life [4, 15]: 7.5 h
AUC(0-t) [4, 15]: 1170 ng·h/mL
Cmax [4, 16]: 2430 ng/mL
Tmax [4, 16]: 1 h
half-life [4, 16]: 5.7 h
AUC(0-t) [4, 16]: 6710 ng·h/mL
Cmax [4, 17]: 7300 ng/mL
Tmax [4, 17]: 0.63 h
half-life [4, 17]: 4.2 h
AUC(0-t) [4, 17]: 22800 ng·h/mL
Cmax [4, 18]: 229 ng/mL
Tmax [4, 18]: 0.63 h
half-life [4, 18]: 4.9 h
AUC(0-t) [4, 18]: 721 ng·h/mL
Cmax [4, 19]: 171 ng/mL
Tmax [4, 19]: 2 h
half-life [4, 19]: 2.6 h
AUC(0-t) [4, 19]: 576 ng·h/mL
Cmax [4, 20]: 1040 ng/mL
Tmax [4, 20]: 1.5 h
half-life [4, 20]: 7.6 h
AUC(0-t) [4, 20]: 2950 ng·h/mL
Cmax [4, 21]: 1350 ng/mL
Tmax [4, 21]: 1.25 h
half-life [4, 21]: 5.2 h
AUC(0-t) [4, 21]: 3910 ng·h/mL
accumulation ([4]; once weekly for 4 weeks at doses up to 60 mg/kg): did not accumulate
tolerability ([4]; single oral administration of 90 mg/kg/adm): side effects in one animal
tolerability ([4]; weekly oral for 4 consecutive weeks at 30, 45, and 60 mg/kg/administration): well-tolerated
Caspase 3/7, 8 [5]: +
Caspase 3/7, 8 [6]: +
Caspase 3/7, 8 [7]: +

Source: US12611406B2, “Oxopiperazine derivatives for the treatment of cancer” (Inthera Bioscience AG, priority 2020, dated 2026)
